US9006188B2, “Co-crystals of dapagliflozin” (Mapi Pharma Ltd., priority 2013, dated 2015)

Assay: Hygroscopicity by Dynamic Vapor Sorption (DVS), sorption/desorption profile
Assay type: physicochemical
Conditions: for weight gain from 0 to 95% RH / Change In Mass (%) - ref, Desorption / Change In Mass (%) - ref, Sorption / Change In Mass (%) - ref, Hysteresis: DVS 25° C.; for hygroscopicity classification: based on DVS weight gain from 0 to 95% RH
Description: The preparation of lactose co-crystal and asparagine co-crystal were scaled up and repeated (about 400 mg of dapagliflozin free form was dissolved in 26 ml of IPA) and XRPD, PLM, TGA, DSC, NMR and DVS analyses were conducted for physicochemical properties evaluation. Before physicochemical properties evaluation, the solids precipitated out were isolated and dried off at 40° C. for 4 hours in vacuum drier. After hygroscopicity test, the sample was retested by XRPD to determine if any form transformation during the DVS test.
The sorption/desorption profiles of dapagliflozin Form I were tested at 25° C. under 0-95% relative humidity. […] This sample was tested by XRPD.

CCOc1ccc(Cc2cc(C3OC(CO)C(O)C(O)C3O)ccc2Cl)cc1.NC(=O)CC(N)C(=O)O (stereo not drawn) [Asparagine co-crystal]
weight gain from 0 to 95% RH: 1.80%
Change In Mass (%) - ref, Desorption (cycle 1, target 0.0 % P/Po): 0.159%
Change In Mass (%) - ref, Sorption (cycle 1, target 0.0 % P/Po): 0.002%
Change In Mass (%) - ref, Desorption (cycle 1, target 5.0 % P/Po): 0.302%
Change In Mass (%) - ref, Hysteresis (cycle 1, target 5.0 % P/Po): 0.071%
Change In Mass (%) - ref, Sorption (cycle 1, target 5.0 % P/Po): 0.231%
Change In Mass (%) - ref, Desorption (cycle 1, target 10.0 % P/Po): 0.341%
Change In Mass (%) - ref, Hysteresis (cycle 1, target 10.0 % P/Po): 0.071%
Change In Mass (%) - ref, Sorption (cycle 1, target 10.0 % P/Po): 0.270%
Change In Mass (%) - ref, Desorption (cycle 1, target 15.0 % P/Po): 0.364%
Change In Mass (%) - ref, Hysteresis (cycle 1, target 15.0 % P/Po): 0.060%
Change In Mass (%) - ref, Sorption (cycle 1, target 15.0 % P/Po): 0.304%
Change In Mass (%) - ref, Desorption (cycle 1, target 20.0 % P/Po): 0.371%
Change In Mass (%) - ref, Hysteresis (cycle 1, target 20.0 % P/Po): 0.035%
Change In Mass (%) - ref, Sorption (cycle 1, target 20.0 % P/Po): 0.336%
Change In Mass (%) - ref, Desorption (cycle 1, target 25.0 % P/Po): 0.392%
Change In Mass (%) - ref, Hysteresis (cycle 1, target 25.0 % P/Po): 0.022%
Change In Mass (%) - ref, Sorption (cycle 1, target 25.0 % P/Po): 0.370%
Change In Mass (%) - ref, Desorption (cycle 1, target 30.0 % P/Po): 0.412%
Change In Mass (%) - ref, Hysteresis (cycle 1, target 30.0 % P/Po): 0.009%
Change In Mass (%) - ref, Sorption (cycle 1, target 30.0 % P/Po): 0.404%
Change In Mass (%) - ref, Desorption (cycle 1, target 35.0 % P/Po): 0.440%
Change In Mass (%) - ref, Hysteresis (cycle 1, target 35.0 % P/Po): −0.006%
Change In Mass (%) - ref, Sorption (cycle 1, target 35.0 % P/Po): 0.446%
Change In Mass (%) - ref, Desorption (cycle 1, target 40.0 % P/Po): 0.474%
Change In Mass (%) - ref, Hysteresis (cycle 1, target 40.0 % P/Po): −0.020%
Change In Mass (%) - ref, Sorption (cycle 1, target 40.0 % P/Po): 0.493%
Change In Mass (%) - ref, Desorption (cycle 1, target 45.0 % P/Po): 0.517%
Change In Mass (%) - ref, Hysteresis (cycle 1, target 45.0 % P/Po): −0.026%
Change In Mass (%) - ref, Sorption (cycle 1, target 45.0 % P/Po): 0.542%
Change In Mass (%) - ref, Desorption (cycle 1, target 50.0 % P/Po): 0.565%
Change In Mass (%) - ref, Hysteresis (cycle 1, target 50.0 % P/Po): −0.042%
Change In Mass (%) - ref, Sorption (cycle 1, target 50.0 % P/Po): 0.607%
Change In Mass (%) - ref, Desorption (cycle 1, target 55.0 % P/Po): 0.600%
Change In Mass (%) - ref, Hysteresis (cycle 1, target 55.0 % P/Po): −0.073%
Change In Mass (%) - ref, Sorption (cycle 1, target 55.0 % P/Po): 0.673%
Change In Mass (%) - ref, Desorption (cycle 1, target 60.0 % P/Po): 0.650%
Change In Mass (%) - ref, Hysteresis (cycle 1, target 60.0 % P/Po): −0.086%
Change In Mass (%) - ref, Sorption (cycle 1, target 60.0 % P/Po): 0.736%
Change In Mass (%) - ref, Desorption (cycle 1, target 65.0 % P/Po): 0.729%
Change In Mass (%) - ref, Hysteresis (cycle 1, target 65.0 % P/Po): −0.057%
Change In Mass (%) - ref, Sorption (cycle 1, target 65.0 % P/Po): 0.786%
Change In Mass (%) - ref, Desorption (cycle 1, target 70.0 % P/Po): 0.794%
Change In Mass (%) - ref, Hysteresis (cycle 1, target 70.0 % P/Po): −0.075%
Change In Mass (%) - ref, Sorption (cycle 1, target 70.0 % P/Po): 0.869%
Change In Mass (%) - ref, Desorption (cycle 1, target 75.0 % P/Po): 0.878%
Change In Mass (%) - ref, Hysteresis (cycle 1, target 75.0 % P/Po): −0.078%
Change In Mass (%) - ref, Sorption (cycle 1, target 75.0 % P/Po): 0.956%
Change In Mass (%) - ref, Desorption (cycle 1, target 80.0 % P/Po): 1.031%
Change In Mass (%) - ref, Hysteresis (cycle 1, target 80.0 % P/Po): −0.041%
Change In Mass (%) - ref, Sorption (cycle 1, target 80.0 % P/Po): 1.072%
Change In Mass (%) - ref, Desorption (cycle 1, target 85.0 % P/Po): 1.171%
Change In Mass (%) - ref, Hysteresis (cycle 1, target 85.0 % P/Po): −0.030%
Change In Mass (%) - ref, Sorption (cycle 1, target 85.0 % P/Po): 1.201%
Change In Mass (%) - ref, Desorption (cycle 1, target 90.0 % P/Po): 1.378%
Change In Mass (%) - ref, Hysteresis (cycle 1, target 90.0 % P/Po): −0.019%
Change In Mass (%) - ref, Sorption (cycle 1, target 90.0 % P/Po): 1.397%
Change In Mass (%) - ref, Desorption (cycle 1, target 95.0 % P/Po): 1.798%
Change In Mass (%) - ref, Sorption (cycle 1, target 95.0 % P/Po): 1.798%
hygroscopicity classification: slightly hygroscopic

CCOc1ccc(Cc2cc(C3OC(CO)C(O)C(O)C3O)ccc2Cl)cc1.OCC1OC(OC2C(CO)OC(O)C(O)C2O)C(O)C(O)C1O (stereo not drawn) [lactose co-crystal]
weight gain from 0 to 95% RH: 2.16%
Change In Mass (%) - ref, Desorption (cycle 1, target 0.0 % P/Po): 0.077%
Change In Mass (%) - ref, Sorption (cycle 1, target 0.0 % P/Po): 0.000%
Change In Mass (%) - ref, Desorption (cycle 1, target 5.0 % P/Po): 0.104%
Change In Mass (%) - ref, Hysteresis (cycle 1, target 5.0 % P/Po): 0.083%
Change In Mass (%) - ref, Sorption (cycle 1, target 5.0 % P/Po): 0.021%
Change In Mass (%) - ref, Desorption (cycle 1, target 10.0 % P/Po): 0.120%
Change In Mass (%) - ref, Hysteresis (cycle 1, target 10.0 % P/Po): 0.078%
Change In Mass (%) - ref, Sorption (cycle 1, target 10.0 % P/Po): 0.042%
Change In Mass (%) - ref, Desorption (cycle 1, target 15.0 % P/Po): 0.136%
Change In Mass (%) - ref, Hysteresis (cycle 1, target 15.0 % P/Po): 0.073%
Change In Mass (%) - ref, Sorption (cycle 1, target 15.0 % P/Po): 0.064%
Change In Mass (%) - ref, Desorption (cycle 1, target 20.0 % P/Po): 0.151%
Change In Mass (%) - ref, Hysteresis (cycle 1, target 20.0 % P/Po): 0.066%
Change In Mass (%) - ref, Sorption (cycle 1, target 20.0 % P/Po): 0.085%
Change In Mass (%) - ref, Desorption (cycle 1, target 25.0 % P/Po): 0.170%
Change In Mass (%) - ref, Hysteresis (cycle 1, target 25.0 % P/Po): 0.063%
Change In Mass (%) - ref, Sorption (cycle 1, target 25.0 % P/Po): 0.107%
Change In Mass (%) - ref, Desorption (cycle 1, target 30.0 % P/Po): 0.188%
Change In Mass (%) - ref, Hysteresis (cycle 1, target 30.0 % P/Po): 0.058%
Change In Mass (%) - ref, Sorption (cycle 1, target 30.0 % P/Po): 0.131%
Change In Mass (%) - ref, Desorption (cycle 1, target 35.0 % P/Po): 0.213%
Change In Mass (%) - ref, Hysteresis (cycle 1, target 35.0 % P/Po): 0.053%
Change In Mass (%) - ref, Sorption (cycle 1, target 35.0 % P/Po): 0.160%
Change In Mass (%) - ref, Desorption (cycle 1, target 40.0 % P/Po): 0.238%
Change In Mass (%) - ref, Hysteresis (cycle 1, target 40.0 % P/Po): 0.036%
Change In Mass (%) - ref, Sorption (cycle 1, target 40.0 % P/Po): 0.201%
Change In Mass (%) - ref, Desorption (cycle 1, target 45.0 % P/Po): 0.266%
Change In Mass (%) - ref, Hysteresis (cycle 1, target 45.0 % P/Po): 0.022%
Change In Mass (%) - ref, Sorption (cycle 1, target 45.0 % P/Po): 0.244%
Change In Mass (%) - ref, Desorption (cycle 1, target 50.0 % P/Po): 0.296%
Change In Mass (%) - ref, Hysteresis (cycle 1, target 50.0 % P/Po): 0.013%
Change In Mass (%) - ref, Sorption (cycle 1, target 50.0 % P/Po): 0.283%
Change In Mass (%) - ref, Desorption (cycle 1, target 55.0 % P/Po): 0.330%
Change In Mass (%) - ref, Hysteresis (cycle 1, target 55.0 % P/Po): 0.007%
Change In Mass (%) - ref, Sorption (cycle 1, target 55.0 % P/Po): 0.323%
Change In Mass (%) - ref, Desorption (cycle 1, target 60.0 % P/Po): 0.366%
Change In Mass (%) - ref, Hysteresis (cycle 1, target 60.0 % P/Po): 0.003%
Change In Mass (%) - ref, Sorption (cycle 1, target 60.0 % P/Po): 0.363%
Change In Mass (%) - ref, Desorption (cycle 1, target 65.0 % P/Po): 0.410%
Change In Mass (%) - ref, Hysteresis (cycle 1, target 65.0 % P/Po): 0.000%
Change In Mass (%) - ref, Sorption (cycle 1, target 65.0 % P/Po): 0.409%
Change In Mass (%) - ref, Desorption (cycle 1, target 70.0 % P/Po): 0.465%
Change In Mass (%) - ref, Hysteresis (cycle 1, target 70.0 % P/Po): 0.000%
Change In Mass (%) - ref, Sorption (cycle 1, target 70.0 % P/Po): 0.466%
Change In Mass (%) - ref, Desorption (cycle 1, target 75.0 % P/Po): 0.531%
Change In Mass (%) - ref, Hysteresis (cycle 1, target 75.0 % P/Po): −0.004%
Change In Mass (%) - ref, Sorption (cycle 1, target 75.0 % P/Po): 0.534%
Change In Mass (%) - ref, Desorption (cycle 1, target 80.0 % P/Po): 0.618%
Change In Mass (%) - ref, Hysteresis (cycle 1, target 80.0 % P/Po): −0.004%
Change In Mass (%) - ref, Sorption (cycle 1, target 80.0 % P/Po): 0.622%
Change In Mass (%) - ref, Desorption (cycle 1, target 85.0 % P/Po): 0.768%
Change In Mass (%) - ref, Hysteresis (cycle 1, target 85.0 % P/Po): 0.005%
Change In Mass (%) - ref, Sorption (cycle 1, target 85.0 % P/Po): 0.762%
Change In Mass (%) - ref, Desorption (cycle 1, target 90.0 % P/Po): 1.081%
Change In Mass (%) - ref, Hysteresis (cycle 1, target 90.0 % P/Po): 0.069%
Change In Mass (%) - ref, Sorption (cycle 1, target 90.0 % P/Po): 1.012%
Change In Mass (%) - ref, Desorption (cycle 1, target 95.0 % P/Po): 2.162%
Change In Mass (%) - ref, Sorption (cycle 1, target 95.0 % P/Po): 2.162%
hygroscopicity classification: hygroscopic
